From patent US20250213627A1, “RECOMBINANT MICROORGANISM-BASED METHODS AND COMPOSITIONS FOR TREATMENT OF DISEASE” (Baylor College of Medicine, priority 2021, published 2025)
Ends that are not written are not given here.

Columns and labels:
rats = assay: Side effects of KCa1.1 blockers (urine spots, tremor measurements); type: in vivo, rat; settings: single injection
Procedure: (§1) FIGS. 12A-12E. Blocking KCa1.1 reduces the severity of an animal model of RA. FIG. 12A. Effects of vehicle (□), paxilline (▪, 20 mg/kg), and iberiotoxin (IbTX, ▪, 0.5 mg/kg) in rats with PIA. Injections were given intraperitoneally (paxilline) or subcutaneously (IbTX), every other day, starting at onset of clinical signs. N=18 rats per group. FIG. 12B. Ex vivo invasiveness of FLS isolated from healthy rats or arthritic rats, treated with vehicle or IbTX. N=5 rats per group. FIG. 12C. Representative images from the joints of arthritic rats, treated with vehicle or IbTX, and stained with Safranin O-fast green (red: cartilage & bone marrow; blue: bone). FIG. 12D. Number of urine spots after rats received a single injection of vehicle, paxilline, or IbTX and were gavaged with 1 ml drinking water. N=6 rats per group. FIG. 12E. Representative tremor measurements in rats 10 min after the injection of vehicle, paxilline, or IbTX. *p<0.05, **p<0.01, ***p<0.001.
(§2) The inventors have tested the efficacy and safety of two KCa1.1 blockers, the small molecule paxilline that blocks KCa1.1 regardless of β subunit and the peptide IbTX that blocks only some αβ combinations of KCa1.1.

KCa1.1 = KCa1.1 (Homo sapiens, UniProt Q12791); settings: cited from earlier work
[1] = system: viral or bacterial infections in rats; settings: rat, in vivo; cited from earlier work
[2] = system: rodents, non-human primates, healthy humans, and patients; settings: systemic administration; Phase 1A and 1B; cited from earlier work
[3] = system: CCR7− TEM cells and CCR7+ naïve/TCM cells; assay: [3H]-thymidine incorporation proliferation of T-cell subsets in presence of ShK-186; type: cell-based, human
Procedure: FIGS. 2A-2C. […] FIGS. 2A-2B. Naïve/TCM (▪) and TEM (▪) cells were separated based on CCR7 expression and activated in the presence of ShK-186, either immediately after isolation (FIG. 2A) or after an overnight pre-activation to induce the upregulation of either KV1.3 or KCa3.1 (FIG. 2B). FIG. 2C. TEM cells were activated with 10 (◯), 30 (▪), or 90 (▴) μg/ml antigen in the presence of ShK-186. In all aspects, T-cell proliferation was assessed via [3H] thymidine incorporation into the DNA of the dividing cells. Each data point represents mean±SD of triplicates.
The activation of CCR7^− TEM cells induces the upregulation of the Kv1.3 K^+ channel (FIG. 1)^8,9. In contrast, CCR7^+ naïve and central memory T (TCM) cells upregulate a different K^+ channel (KCa3.1) upon activation^8,9,35. The inventors therefore designed selective Kv1.3 blockers and assessed the sensitivity of the different T-cell subsets to Kv1.3 block. […] Without wishing to be bound by theory, this “escape” by naïve/TCM effectors may be due to up-regulation of the calcium-activated KCa3.1 channel that regulates membrane potential and Ca^2+ signaling in naïve/TCM effectors in place of Kv1.38. The significance of this finding is that in some aspects Kv1.3 blockers have an advantage over current immunotherapies because naïve and long-lived TCM cells (the main memory pool) would escape inhibition while TEM cells would be targeted.

active plaque psoriasis = settings: doses as low at 30 μg/patient 3 times a week subcutaneously; cited from earlier work
[4] = system: rat models of RA and multiple sclerosis; settings: in vivo; cited from earlier work
Kv1.3 = Kv1.3 (Mus musculus, UniProt P16390); settings: literature values; cited from earlier work
[5] = system: Kv1.3 versus Kv1.1 and other ion channels; settings: cited from earlier work
[6] = Immunohistochemistry detection of HA tag in spleen after injection; type: in vivo, rat; settings: subcutaneous injection, spleens collected 3 hours later
Procedure: FIGS. 10A-10B. LrS235-HA secretes functionally active HA-tagged ShK-235. FIG. 10A. Representative whole-cell Kv1.3 currents measured by patch-clamp in cells stably expressing Kv1.3 before (control, top trace) and after application of ShK-235-HA (bottom trace). FIG. 10B. Healthy Lewis rats received a subcutaneous injection of either ShK-235-HA (left) or of untagged ShK-235 (right). Their spleens were collected 3 hours later and stained to detect the HA tag in brown (arrows). Scale bar: 50 μm.
Two complementary approaches to directly detect ShK-235 in joints and tissues and assess its action on T lymphocyte proliferation are used. L. reuteri LJ01 has been engineered to express HA-tagged ShK-235 (LrS235-HA), because the low immunogenicity of the peptide has made it impossible to raise antibodies against ShK-235. […] ShK-235-HA was injected to healthy rats and their spleens collected. […] HA-tagged ShK-235 is used to detect and localize ShK-235 in the joints, intestines, and secondary lymphoid organs of rats with CIA.

rat CIA model of RA = assay: CIA model treated with LrIbTX; type: in vivo; settings: daily treatment for 3 weeks from onset
From the text: CIA is induced in male and female Lewis rats as described above and the rats monitored for clinical signs of arthritis. Treatment begins at onset of clinical signs, at which time rats are randomly assigned to the different treatment groups: oral LrIbTX, oral LrIbTX[R34D], injected synthetic IbTX, and injected vehicle. Treatment continues daily for 3 weeks. Rats are scored daily for CIA severity with a score of 2 given for each lightly swollen ankle or wrist, 5 for each severely swollen ankle and wrist, and 1 for each red and swollen small joint for a total of 15 per paw. At the end of the 3 weeks of treatment and scoring, rats are euthanized for collection of blood and hind limbs. Blood is used to prepare serum to detect circulating levels of IbTX. For each rat, the left hind limb is used for micro-CT to detect bone damage followed by sectioning for histology to detect cartilage damage (safranin O/Fast Green stain) and synovium inflammation (hematoxylin and eosin stain). The right hind limb is used for the isolation of FLS to assess their proliferation and invasiveness ex vivo, using the methods described above, without further treatment.

rat model of RA (PIA) = assay: Pristane-induced arthritis (PIA) model treated with KCa1.1 blockers; type: in vivo; settings: paxilline 20 mg/kg i.p., IbTX 0.5 mg/kg s.c., every other day from onset
Procedure: as §1, §2

CIA = settings: injected; cited from earlier work
RA-FLS = RA-FLS proliferation and invasion assays; type: cell-based, human; settings: supernatants or synthetic peptide
Procedure: For proliferation assays, RA-FLS are plated into 96 well plates and incubated for 48 hrs in the presence of media supplemented with either LrIbTX or LrIbTX[R34D] supernatants, known concentrations of synthetic IbTX, or the vehicle for IbTX. [3H] thymidine is added during the last 16-18 hrs of culture and the amount of [3H] thymidine incorporated into the DNA collected with a scintillation counter as a measure of cell division.
For invasion assays, RA-FLS are seeded in the upper compartment of a Matrigel-coated transwell and induced to cross into the lower compartment by the addition of FBS. The upper compartment is supplemented with either LrIbTX or LrIbTX[R34D] supernatants, synthetic IbTX, or the vehicle. The number of cells crossing into the lower compartment are counted as a measure of invasiveness.

[7] = Detection of functional IbTX in the circulation of rats by patch-clamp; type: in vivo, rat; settings: enteric-coated capsule
Procedure: CIA is induced in both male and female Lewis rats by their immunization twice at a week interval with porcine collagen II in emulsion with incomplete Freund's adjuvant. Rats are monitored for clinical signs of arthritis and receive an oral bolus of [1×10^7-1×10^9 CFU] LrIbTX or LrIbTX[R34D], or an enteric-coated capsule containing either 0.1 mg/kg body weight synthetic IbTX, IbTX[R34D] or glycerin on the day after the onset of clinical signs. Age- and sex-matched healthy rats are used for comparison. Blood is collected via the saphenous vein or via terminal cardiac puncture 1 hr, 6 hrs, and 24 hrs after gavage. Whole-cell patch-clamp is used to detect and quantify levels of functional IbTX in the serum of the rats.

[8] = cells activated overnight, rested and re-stimulated

Chain of Kv1.3 (P16390 whole entry): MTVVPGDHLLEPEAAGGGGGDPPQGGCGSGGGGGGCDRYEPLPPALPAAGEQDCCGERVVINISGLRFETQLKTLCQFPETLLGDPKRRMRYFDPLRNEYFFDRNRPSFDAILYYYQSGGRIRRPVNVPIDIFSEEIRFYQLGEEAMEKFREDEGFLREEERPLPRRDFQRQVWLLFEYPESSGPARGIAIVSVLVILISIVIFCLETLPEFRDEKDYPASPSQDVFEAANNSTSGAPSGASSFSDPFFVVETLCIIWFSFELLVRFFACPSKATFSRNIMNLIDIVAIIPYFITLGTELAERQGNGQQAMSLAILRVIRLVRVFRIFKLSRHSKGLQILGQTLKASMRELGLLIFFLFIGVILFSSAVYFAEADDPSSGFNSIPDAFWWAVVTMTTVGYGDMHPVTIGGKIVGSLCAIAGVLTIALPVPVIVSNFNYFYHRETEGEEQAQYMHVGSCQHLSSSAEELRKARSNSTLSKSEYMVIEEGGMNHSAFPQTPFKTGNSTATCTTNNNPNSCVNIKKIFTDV
Chain of KCa1.1 (Q12791 whole entry, species assumed): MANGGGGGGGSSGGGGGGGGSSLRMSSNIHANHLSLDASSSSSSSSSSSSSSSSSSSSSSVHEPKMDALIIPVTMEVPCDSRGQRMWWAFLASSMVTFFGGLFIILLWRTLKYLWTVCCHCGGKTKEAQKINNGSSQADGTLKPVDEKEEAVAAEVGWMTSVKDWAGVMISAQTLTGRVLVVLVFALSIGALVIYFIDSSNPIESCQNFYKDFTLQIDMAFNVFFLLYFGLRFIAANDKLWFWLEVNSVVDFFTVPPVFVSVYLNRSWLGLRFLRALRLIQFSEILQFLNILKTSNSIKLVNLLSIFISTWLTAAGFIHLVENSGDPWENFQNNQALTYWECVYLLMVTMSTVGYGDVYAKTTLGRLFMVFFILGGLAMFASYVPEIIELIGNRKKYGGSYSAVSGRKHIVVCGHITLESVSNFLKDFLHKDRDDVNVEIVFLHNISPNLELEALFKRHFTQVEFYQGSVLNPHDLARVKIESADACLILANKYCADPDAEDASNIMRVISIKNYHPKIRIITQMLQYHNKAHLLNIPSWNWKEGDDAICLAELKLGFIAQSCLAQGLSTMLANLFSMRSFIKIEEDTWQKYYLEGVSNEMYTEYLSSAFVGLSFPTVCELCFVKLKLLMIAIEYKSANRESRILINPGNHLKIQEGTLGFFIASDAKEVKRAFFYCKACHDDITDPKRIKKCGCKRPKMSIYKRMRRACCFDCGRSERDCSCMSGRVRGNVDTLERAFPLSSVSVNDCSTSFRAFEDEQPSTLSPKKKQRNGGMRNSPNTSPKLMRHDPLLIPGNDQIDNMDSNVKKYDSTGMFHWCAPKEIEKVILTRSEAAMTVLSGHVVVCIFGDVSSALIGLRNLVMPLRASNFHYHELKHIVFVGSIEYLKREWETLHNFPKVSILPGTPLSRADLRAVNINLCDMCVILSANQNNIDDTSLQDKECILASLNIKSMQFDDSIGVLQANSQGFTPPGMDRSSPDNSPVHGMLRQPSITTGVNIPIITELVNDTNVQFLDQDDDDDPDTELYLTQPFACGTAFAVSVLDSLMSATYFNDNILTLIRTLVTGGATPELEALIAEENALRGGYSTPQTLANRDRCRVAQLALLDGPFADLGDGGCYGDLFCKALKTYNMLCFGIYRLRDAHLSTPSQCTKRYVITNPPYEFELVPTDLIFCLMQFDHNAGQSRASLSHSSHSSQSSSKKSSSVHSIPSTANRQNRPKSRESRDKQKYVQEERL

For `CC(C)(O)[C@H]1O[C@H]2CC[C@@]3(C)[C@@](O)(CC[C@H]4Cc5c([nH]c6ccccc56)[C@@]43C)C2=CC1=O` [paxilline], the “Side effects (incontinence, tremors)” value (rats) was “induces incontinence and tremors”.
For “IbTX[R34D] (QFTDVDCSVSKECWSVCKDLFGVDRGKCMGKKCDCYQ; ends and bridges not checked; cysteine pairing not given here; UniProt P24663 1-37, looked up, variant R34D)”, the “Block of KCa1.1 channels” value (KCa1.1; mutant IbTX) is given as “does not block KCa1.1 channels”.
For “ShK derivative, pTyr-AEEA-RSCIDTIPKSRCTAFQCKHSMKYRLSFCRKTCGTC, amidated C-terminus (SEQ ID NO:11) [ShK-186]”, the “Effect on clearance of infections” value [1] is listed as “did not prevent the clearance”, the Safety profile [2] is listed as “excellent safety profile” and the “Sensitivity of TEM cell proliferation to the Kv1.3 blocker” value [3, 8] is listed as “exquisitely sensitive”. For the same compound, the “Sensitivity of naïve/TCM cell proliferation to the Kv1.3 blocker” value [3, 8] was “resistant”, the “Fold more effective in suppressing [3H]-thymidine incorporation by TEM cells compared with naïve/TCM cells” value ([3]; cells from patients with type 1 diabetes or RA, activated immediately after isolation) was 10 fold and the Efficacy (active plaque psoriasis) was “showed efficacy”. The Tolerability (active plaque psoriasis) was “well tolerated”, the Efficacy [4] was “demonstrated efficacy” and the IC50 (Kv1.3) was 0.07 nM. For the same compound, the “Selectivity for Kv1.3 over all other ion channels” value [5] was at least 700 fold, the “Selectivity for Kv1.3 versus the closely-related Kv1.1 channel” value [5] was 100 fold and the “Selectivity for Kv1.3 over other channels” value ([5]; comparator value) was 100 fold.
For “ShK-235-HA: HA-tagged ShK-235 (RSCIDTIPKSRCTAFKCKHSIKYRLSFCRKTCGTCA; ends and bridges not checked; also: HA tag (position not given here))”, the “Detection in spleen sections” value [6] was “detect HA-ShK-235 in spleen sections”.
For “iberiotoxin (QFTDVDCSVSKECWSVCKDLFGVDRGKCMGKKCRCYQ; not fully specified (residue 1, bridges); cysteine pairing not given here; UniProt P24663 1-37, looked up) [IbTX]”, the CIA disease severity (rat CIA model of RA) is given as “milder disease”, the “Reduction of disease severity” value (rat model of RA (PIA)) is given as “effective in reducing disease severity” and the “Efficacy in CIA” value (CIA) is given as “showed efficacy”. For the same compound, the “Inhibition of RA-FLS proliferation and invasiveness” value (RA-FLS) was “inhibit”, the “Detection of IbTX in the circulation” value [7] was “transiently detected” and the “Side effects (incontinence, tremors)” value (rats) was “No such side effects”. For the same compound, the IC50 (KCa1.1) was 2 nM.
For “sea anemone Stichodactyla helianthus peptide RSCIDTIPKSRCTAFQCKHSMKYRLSFCRKTCGTC (SEQ ID NO:10) [ShK]”, the IC50 (Kv1.3) is given as 0.01 nM.
